Test results from ChEMBL document CHEMBL1201862, “PubChem BioAssay data set” (2004).
Calls of active or inactive are those of the source.

What was measured:
Type in all cases: functional
[1] = molecular target: Serine/threonine-protein kinase pim-1 (Homo sapiens, UniProt P11309)
Aurora kinase A = Aurora kinase A (Homo sapiens, UniProt O14965);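 also: value from the Navigating the Kinome kinase panel profiling, panel entry STK6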
LIM domain kinase 1 = LIM domain kinase 1 (Homo sapiens, UniProt P53667); assay: Navigating the Kinome. Panel member name: LIMK1
[2] = molecular target: Dual specificity protein kinase CLK4 (Homo sapiens, UniProt Q9HAZ1)
[3] = molecular target: Tyrosine-protein kinase BTK (Homo sapiens, UniProt Q06187)
[4] = molecular target: Vascular endothelial growth factor receptor 1 (Homo sapiens, UniProt P17948);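 also: measured within a kinome-wide profiling panel, FLT1 as the panel member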
[5] = molecular target: Insulin-like growth factor 1 receptor (Homo sapiens, UniProt P08069); assay: Navigating the Kinome. Panel member name: IGF1R
[6] = molecular target: Dual specificity tyrosine-phosphorylation-regulated kinase 1A (Homo sapiens, UniProt Q13627);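 also: measured against DYRK1A as one member of a broad kinome profiling panel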
[7] = molecular target: cAMP-dependent protein kinase catalytic subunit alpha (Homo sapiens, UniProt P17612)
[8] = molecular target: Fibroblast growth factor receptor 1 (Homo sapiens, UniProt P11362)
[9] = molecular target: Rho-associated protein kinase 1 (Homo sapiens, UniProt Q13464);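 also: measured within a broad kinome-wide panel profiling many kinases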
Aurora kinase B = Aurora kinase B (Homo sapiens, UniProt Q96GD4)
[10] = molecular target: Serine/threonine-protein kinase TBK1 (Homo sapiens, UniProt Q9UHD2); assay: Navigating the Kinome. Panel member name: TBK1
[11] = molecular target: Dual specificity mitogen-activated protein kinase kinase 1 (Homo sapiens, UniProt Q02750); assay: Navigating the Kinome. Panel member name: MAP2K1
[12] = molecular target: High affinity nerve growth factor receptor (Homo sapiens, UniProt P04629);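 also: NTRK1 tested as one member of a kinome-wide profiling panel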
[13] = molecular target: Protein kinase C theta type (Homo sapiens, UniProt Q04759); assay: Navigating the Kinome. Panel member name: PRKCQ
[14] = molecular target: Dual specificity protein kinase CLK2 (Homo sapiens, UniProt P49760)
Activated CDC42 kinase 1 = Activated CDC42 kinase 1 (Homo sapiens, UniProt Q07912); assay: Navigating the Kinome. Panel member name: ACK1
[15] = molecular target: Mitogen-activated protein kinase kinase kinase kinase 2 (Homo sapiens, UniProt Q12851);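 also: measured as one member of a kinome-wide kinase panel, with MAP4K2 as the panel entry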
Activin receptor type-1 = Activin receptor type-1 (Homo sapiens, UniProt Q04771); assay: Navigating the Kinome. Panel member name: ACVR1
[16] = molecular target: Glycogen synthase kinase-3 beta (Homo sapiens, UniProt P49841);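 also: value comes from a broad kinome profiling panel, with GSK3B as the panel member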
[17] = molecular target: Platelet-derived growth factor receptor alpha (Homo sapiens, UniProt P16234); assay: Navigating the Kinome. Panel member name: PDGFRA
[18] = molecular target: Mitogen-activated protein kinase kinase kinase kinase 4 (Homo sapiens, UniProt O95819)
[19] = molecular target: Receptor-type tyrosine-protein kinase FLT3 (Homo sapiens, UniProt P36888);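 also: FLT3 was tested as one member of a kinome-wide kinase panel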
[20] = molecular target: Death-associated protein kinase 3 (Homo sapiens, UniProt O43293);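 also: measured as one member of a kinome-wide profiling panel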
[21] = molecular target: Hepatocyte growth factor receptor (Homo sapiens, UniProt P08581);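 also: kinase panel profiling across the kinome, with MET as the panel member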
[22] = molecular target: Proto-oncogene tyrosine-protein kinase receptor Ret (Homo sapiens, UniProt P07949);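 also: measured within a kinome-wide profiling panel, RET as the panel member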
[23] = molecular target: Cyclin-dependent kinase 9 (Homo sapiens, UniProt P50750);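 also: value from the CDK9 entry of a kinome-spanning kinase panel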
[24] = molecular target: Cyclin-dependent kinase 8 (Homo sapiens, UniProt P49336); assay: Navigating the Kinome. Panel member name: CDK8
[25] = molecular target: Serine/threonine-protein kinase Nek2 (Homo sapiens, UniProt P51955)
[26] = molecular target: Serine/threonine-protein kinase PAK 4 (Homo sapiens, UniProt O96013);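 also: value obtained within a kinome profiling panel in which PAK4 was one of the panel members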
[27] = molecular target: Tyrosine-protein kinase receptor TYRO3 (Homo sapiens, UniProt Q06418);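 also: TYRO3 value obtained as one member of a kinome-wide profiling panel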
[28] = molecular target: Leucine-rich repeat serine/threonine-protein kinase 2 (Homo sapiens, UniProt Q5S007);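 also: value from a broad kinome-wide panel profiling study in which LRRK2 was one of the kinases tested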
[29] = molecular target: cAMP-dependent protein kinase catalytic subunit PRKX (Homo sapiens, UniProt P51817)
[30] = molecular target: Glycogen synthase kinase-3 alpha (Homo sapiens, UniProt P49840);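 also: GSK3A result taken from a broad kinome-wide kinase panel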
[31] = molecular target: Tyrosine-protein kinase Fyn (Homo sapiens, UniProt P06241)
[32] = molecular target: Tyrosine-protein kinase ABL1 (Homo sapiens, UniProt P00519)
[33] = molecular target: Serine/threonine-protein kinase Chk1 (Homo sapiens, UniProt O14757);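 also: measured as one member of a kinome-wide kinase profiling panel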
[34] = molecular target: 5'-AMP-activated protein kinase catalytic subunit alpha-1 (Homo sapiens, UniProt Q13131)
[35] = molecular target: Macrophage-stimulating protein receptor (Homo sapiens, UniProt Q04912); assay: Navigating the Kinome. Panel member name: MST1R
[36] = molecular target: Dual specificity tyrosine-phosphorylation-regulated kinase 1B (Homo sapiens, UniProt Q9Y463); assay: Navigating the Kinome. Panel member name: DYRK1B
[37] = molecular target: Cyclin-dependent kinase 7 (Homo sapiens, UniProt P50613);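 also: value comes from a kinome-wide kinase profiling panel in which CDK7 is one member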
[38] = molecular target: BDNF/NT-3 growth factors receptor (Homo sapiens, UniProt Q16620);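 also: NTRK2 measured as one member of a broad kinome-wide kinase profiling panel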
[39] = molecular target: ALK tyrosine kinase receptor (Homo sapiens, UniProt Q9UM73);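 also: ALK tested as one member of a kinase panel screen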
[40] = molecular target: Serine/threonine-protein kinase D3 (Homo sapiens, UniProt O94806);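 also: determined within a kinase panel screen, with PRKCN as the panel member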
[41] = molecular target: Calcium/calmodulin-dependent protein kinase type II subunit alpha (Homo sapiens, UniProt Q9UQM7); assay: Navigating the Kinome. Panel member name: CAMK2A
[42] = molecular target: Inhibitor of nuclear factor kappa-B kinase subunit epsilon (Homo sapiens, UniProt Q14164); assay: Navigating the Kinome. Panel member name: IKBKE
[43] = molecular target: Leukocyte tyrosine kinase receptor (Homo sapiens, UniProt P29376); assay: Navigating the Kinome. Panel member name: LTK
[44] = molecular target: Casein kinase I isoform alpha (Homo sapiens, UniProt P48729)
[45] = molecular target: Cyclin-dependent kinase 5 (Homo sapiens, UniProt Q00535);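 also: CDK5 measured as one member of a kinase profiling panel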
[46] = molecular target: Mitogen-activated protein kinase 8 (Homo sapiens, UniProt P45983);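 also: value comes from one member of a kinome-wide kinase profiling panel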
[47] = molecular target: Macrophage colony-stimulating factor 1 receptor (Homo sapiens, UniProt P07333);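 also: value comes from the Navigating the Kinome screening panel, CSF1R member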
[48] = molecular target: Casein kinase II subunit alpha (Homo sapiens, UniProt P68400)
[49] = molecular target: Tyrosine-protein kinase Blk (Homo sapiens, UniProt P51451);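 also: obtained as one member of a kinome-wide kinase assay panel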
[50] = molecular target: G protein-coupled receptor kinase 5 (Homo sapiens, UniProt P34947); assay: Navigating the Kinome. Panel member name: GPRK5
[51] = molecular target: Tyrosine-protein kinase JAK2 (Homo sapiens, UniProt O60674);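 also: JAK2 tested as one member of a kinase panel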
[52] = molecular target: Fibroblast growth factor receptor 3 (Homo sapiens, UniProt P22607)
[53] = molecular target: Homeodomain-interacting protein kinase 2 (Homo sapiens, UniProt Q9H2X6);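 also: measured within a kinome-wide kinase profiling panel, HIPK2 being one panel member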
[54] = molecular target: Homeodomain-interacting protein kinase 4 (Homo sapiens, UniProt Q8NE63)
[55] = molecular target: Mast/stem cell growth factor receptor Kit (Homo sapiens, UniProt P10721);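 also: KIT entry within a kinase panel assay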
[56] = molecular target: Tyrosine-protein kinase receptor UFO (Homo sapiens, UniProt P30530)
[57] = molecular target: Vascular endothelial growth factor receptor 2 (Homo sapiens, UniProt P35968)
[58] = molecular target: Serine/threonine-protein kinase 17A (Homo sapiens, UniProt Q9UEE5)
[59] = molecular target: Vascular endothelial growth factor receptor 3 (Homo sapiens, UniProt P35916);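 also: value from a kinome-wide profiling panel, with FLT4 as the panel member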
[60] = molecular target: Protein kinase C gamma type (Homo sapiens, UniProt P05129)
[61] = molecular target: Tyrosine-protein kinase JAK3 (Homo sapiens, UniProt P52333)

Sequence of Leucine-rich repeat serine/threonine-protein kinase 2 (Q5S007 whole entry): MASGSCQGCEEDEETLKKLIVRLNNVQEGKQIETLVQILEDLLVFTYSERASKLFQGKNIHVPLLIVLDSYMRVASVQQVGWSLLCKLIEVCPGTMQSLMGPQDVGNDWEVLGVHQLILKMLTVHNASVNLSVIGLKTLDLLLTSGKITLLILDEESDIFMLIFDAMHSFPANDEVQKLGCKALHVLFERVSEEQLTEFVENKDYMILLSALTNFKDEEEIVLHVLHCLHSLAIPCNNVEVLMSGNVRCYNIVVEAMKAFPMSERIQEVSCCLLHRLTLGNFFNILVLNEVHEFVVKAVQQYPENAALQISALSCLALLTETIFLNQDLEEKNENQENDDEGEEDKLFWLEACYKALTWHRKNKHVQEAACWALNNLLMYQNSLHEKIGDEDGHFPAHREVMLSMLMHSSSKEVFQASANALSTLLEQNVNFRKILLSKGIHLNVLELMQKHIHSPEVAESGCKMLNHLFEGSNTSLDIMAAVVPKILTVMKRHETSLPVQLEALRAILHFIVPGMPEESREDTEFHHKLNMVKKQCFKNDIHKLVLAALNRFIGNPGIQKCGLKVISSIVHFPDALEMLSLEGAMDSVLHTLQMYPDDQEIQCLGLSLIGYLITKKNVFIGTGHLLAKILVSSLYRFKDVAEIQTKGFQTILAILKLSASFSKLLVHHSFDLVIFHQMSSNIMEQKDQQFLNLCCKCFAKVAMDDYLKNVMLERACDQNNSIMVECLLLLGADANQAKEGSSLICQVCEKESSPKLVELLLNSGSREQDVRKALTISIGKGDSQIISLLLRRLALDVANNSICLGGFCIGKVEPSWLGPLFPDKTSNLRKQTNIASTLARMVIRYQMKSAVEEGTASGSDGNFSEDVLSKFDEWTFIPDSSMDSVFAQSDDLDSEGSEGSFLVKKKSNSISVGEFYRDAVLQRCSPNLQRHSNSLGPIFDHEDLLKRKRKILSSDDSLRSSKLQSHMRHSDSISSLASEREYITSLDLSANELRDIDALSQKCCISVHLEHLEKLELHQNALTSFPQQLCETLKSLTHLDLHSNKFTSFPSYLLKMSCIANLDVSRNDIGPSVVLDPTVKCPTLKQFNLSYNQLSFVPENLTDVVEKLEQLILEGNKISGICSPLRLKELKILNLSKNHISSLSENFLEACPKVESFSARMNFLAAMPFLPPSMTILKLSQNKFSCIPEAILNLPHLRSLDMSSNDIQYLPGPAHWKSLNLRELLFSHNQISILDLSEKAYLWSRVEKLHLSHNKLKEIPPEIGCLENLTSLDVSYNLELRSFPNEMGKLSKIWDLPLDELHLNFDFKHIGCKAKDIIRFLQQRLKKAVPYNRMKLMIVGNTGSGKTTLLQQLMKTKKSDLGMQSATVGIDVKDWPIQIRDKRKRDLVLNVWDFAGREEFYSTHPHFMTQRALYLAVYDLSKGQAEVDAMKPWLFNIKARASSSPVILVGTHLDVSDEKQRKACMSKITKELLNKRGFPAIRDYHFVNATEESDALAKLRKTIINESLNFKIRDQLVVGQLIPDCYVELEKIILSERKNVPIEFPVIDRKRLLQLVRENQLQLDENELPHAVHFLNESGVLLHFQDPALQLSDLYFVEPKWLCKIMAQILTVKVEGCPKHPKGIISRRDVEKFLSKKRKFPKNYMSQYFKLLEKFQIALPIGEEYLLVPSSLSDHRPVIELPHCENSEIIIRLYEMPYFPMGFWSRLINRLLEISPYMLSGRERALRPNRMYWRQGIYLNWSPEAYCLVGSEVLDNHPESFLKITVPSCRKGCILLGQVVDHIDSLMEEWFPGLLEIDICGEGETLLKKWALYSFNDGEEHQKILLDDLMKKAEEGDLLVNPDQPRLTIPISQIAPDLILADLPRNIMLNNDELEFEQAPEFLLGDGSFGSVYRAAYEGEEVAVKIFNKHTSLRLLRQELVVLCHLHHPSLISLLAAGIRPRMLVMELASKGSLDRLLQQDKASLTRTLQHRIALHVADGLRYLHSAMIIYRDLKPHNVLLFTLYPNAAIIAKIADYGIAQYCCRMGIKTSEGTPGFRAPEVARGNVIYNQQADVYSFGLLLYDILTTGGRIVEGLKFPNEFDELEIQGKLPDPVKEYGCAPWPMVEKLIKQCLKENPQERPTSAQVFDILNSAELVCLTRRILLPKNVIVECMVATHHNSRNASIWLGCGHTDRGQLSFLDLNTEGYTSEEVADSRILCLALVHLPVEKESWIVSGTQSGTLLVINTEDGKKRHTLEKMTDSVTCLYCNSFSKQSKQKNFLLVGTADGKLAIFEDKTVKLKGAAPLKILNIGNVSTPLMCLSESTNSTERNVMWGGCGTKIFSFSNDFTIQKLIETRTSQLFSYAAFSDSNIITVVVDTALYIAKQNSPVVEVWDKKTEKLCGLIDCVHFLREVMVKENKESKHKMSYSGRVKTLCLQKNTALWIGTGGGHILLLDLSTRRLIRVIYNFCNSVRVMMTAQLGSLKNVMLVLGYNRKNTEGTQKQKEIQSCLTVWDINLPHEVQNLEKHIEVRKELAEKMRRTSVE
Sequence of Vascular endothelial growth factor receptor 1 (P17948 whole entry): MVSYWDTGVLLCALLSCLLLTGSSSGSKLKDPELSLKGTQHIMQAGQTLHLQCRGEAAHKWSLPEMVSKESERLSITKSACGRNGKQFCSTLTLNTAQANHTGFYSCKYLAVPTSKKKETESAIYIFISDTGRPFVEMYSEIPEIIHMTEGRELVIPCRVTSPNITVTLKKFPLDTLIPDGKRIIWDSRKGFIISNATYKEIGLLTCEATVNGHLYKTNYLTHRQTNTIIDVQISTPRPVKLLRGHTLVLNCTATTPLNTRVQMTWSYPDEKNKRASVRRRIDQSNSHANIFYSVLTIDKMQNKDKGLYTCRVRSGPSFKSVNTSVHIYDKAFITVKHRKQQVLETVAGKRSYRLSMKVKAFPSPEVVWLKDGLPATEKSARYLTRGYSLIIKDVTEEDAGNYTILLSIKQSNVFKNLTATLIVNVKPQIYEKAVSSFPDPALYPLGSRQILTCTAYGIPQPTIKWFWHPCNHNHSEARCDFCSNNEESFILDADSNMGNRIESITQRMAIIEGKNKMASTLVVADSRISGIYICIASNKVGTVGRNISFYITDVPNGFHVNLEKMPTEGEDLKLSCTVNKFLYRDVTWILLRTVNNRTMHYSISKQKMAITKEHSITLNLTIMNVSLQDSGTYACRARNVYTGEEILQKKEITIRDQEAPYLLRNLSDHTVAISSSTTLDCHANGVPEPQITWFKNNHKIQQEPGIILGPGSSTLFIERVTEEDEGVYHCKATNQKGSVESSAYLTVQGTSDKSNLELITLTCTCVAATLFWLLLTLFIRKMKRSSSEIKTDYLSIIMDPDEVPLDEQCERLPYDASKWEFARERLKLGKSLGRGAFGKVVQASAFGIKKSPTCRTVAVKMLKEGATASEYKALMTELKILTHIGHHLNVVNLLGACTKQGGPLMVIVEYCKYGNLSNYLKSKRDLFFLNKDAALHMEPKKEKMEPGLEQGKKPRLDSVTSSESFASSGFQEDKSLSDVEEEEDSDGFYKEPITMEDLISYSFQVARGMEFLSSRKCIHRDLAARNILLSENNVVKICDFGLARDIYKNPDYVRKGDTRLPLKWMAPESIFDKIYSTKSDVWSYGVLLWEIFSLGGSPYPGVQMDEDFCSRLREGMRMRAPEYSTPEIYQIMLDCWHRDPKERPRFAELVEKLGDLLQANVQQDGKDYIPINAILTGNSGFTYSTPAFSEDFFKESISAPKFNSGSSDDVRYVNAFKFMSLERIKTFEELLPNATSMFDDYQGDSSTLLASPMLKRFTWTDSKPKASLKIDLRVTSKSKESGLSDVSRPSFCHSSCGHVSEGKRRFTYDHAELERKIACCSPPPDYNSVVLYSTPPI
Sequence of Leukocyte tyrosine kinase receptor (P29376 whole entry, canonical isoform): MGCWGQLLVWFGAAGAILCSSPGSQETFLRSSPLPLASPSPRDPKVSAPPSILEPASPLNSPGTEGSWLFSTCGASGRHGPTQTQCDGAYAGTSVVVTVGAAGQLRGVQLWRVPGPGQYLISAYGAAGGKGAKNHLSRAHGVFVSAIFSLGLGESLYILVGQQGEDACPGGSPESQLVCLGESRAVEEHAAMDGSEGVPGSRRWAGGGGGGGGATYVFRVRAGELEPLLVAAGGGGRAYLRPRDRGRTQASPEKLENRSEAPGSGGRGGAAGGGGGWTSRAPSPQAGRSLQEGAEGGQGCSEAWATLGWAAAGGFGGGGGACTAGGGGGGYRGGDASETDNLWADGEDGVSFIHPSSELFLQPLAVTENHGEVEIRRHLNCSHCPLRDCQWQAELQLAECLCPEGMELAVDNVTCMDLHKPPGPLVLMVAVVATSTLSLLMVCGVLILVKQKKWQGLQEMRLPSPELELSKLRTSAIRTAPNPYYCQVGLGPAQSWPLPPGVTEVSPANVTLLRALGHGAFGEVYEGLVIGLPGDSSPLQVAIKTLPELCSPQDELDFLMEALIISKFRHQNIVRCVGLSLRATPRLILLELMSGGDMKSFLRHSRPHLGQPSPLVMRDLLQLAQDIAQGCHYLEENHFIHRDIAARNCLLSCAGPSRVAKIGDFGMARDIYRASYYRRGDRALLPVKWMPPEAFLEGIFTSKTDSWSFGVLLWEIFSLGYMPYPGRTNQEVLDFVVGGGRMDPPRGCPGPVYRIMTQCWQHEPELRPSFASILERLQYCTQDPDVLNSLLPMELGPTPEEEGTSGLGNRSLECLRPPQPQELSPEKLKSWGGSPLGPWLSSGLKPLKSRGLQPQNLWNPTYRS
Sequence of Dual specificity mitogen-activated protein kinase kinase 1 (Q02750 whole entry): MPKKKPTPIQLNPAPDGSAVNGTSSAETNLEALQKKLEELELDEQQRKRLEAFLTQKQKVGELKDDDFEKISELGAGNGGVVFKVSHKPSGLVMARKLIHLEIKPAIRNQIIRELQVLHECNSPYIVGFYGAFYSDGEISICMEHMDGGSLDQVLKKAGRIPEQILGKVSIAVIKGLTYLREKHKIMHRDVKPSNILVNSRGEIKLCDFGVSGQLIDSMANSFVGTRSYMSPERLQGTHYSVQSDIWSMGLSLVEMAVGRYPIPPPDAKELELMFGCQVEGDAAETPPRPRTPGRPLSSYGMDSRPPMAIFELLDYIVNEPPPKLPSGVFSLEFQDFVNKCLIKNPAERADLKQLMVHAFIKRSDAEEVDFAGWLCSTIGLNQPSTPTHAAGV

SMILES: Nc1cc(=O)[nH]n1-c1ccccn1
- Ki [1]: 50.1 µM (active)
- Ki (Aurora kinase A): 7.94 µM (active)
- Ki (LIM domain kinase 1): 1.58 µM (active)
- Ki [2]: 0.501 µM (active)
- Ki [3]: 31.6 µM (active)
- Ki [4]: 20 µM (active)
- Ki [5]: 79.4 µM (active)
- Ki [6]: 2 µM (active)
- Ki [7]: 15.8 µM (active)
- Ki [8]: 31.6 µM (active)
- Ki [9]: 79.4 µM (active)
- Ki (Aurora kinase B): 25.1 µM (active)
- Ki [10]: 7.94 µM (active)
- Ki [11]: 79.4 µM (active)
- Ki [12]: 15.8 µM (active)
- Ki [13]: 20 µM (active)
- Ki [14]: 50.1 µM (active)
- Ki (Activated CDC42 kinase 1): 50.1 µM (active)
- Ki [15]: 10 µM (active)
- Ki (Activin receptor type-1): 15.8 µM (active)
- Ki [16]: 20 µM (active)
- Ki [17]: 12.6 µM (active)
- Ki [18]: 63.1 µM (active)
- Ki [19]: 15.8 µM (active)
- Ki [20]: 20 µM (active)
- Ki [21]: 6.31 µM (active)
- Ki [22]: 12.6 µM (active)
- Ki [23]: 3.98 µM (active)
- Ki [24]: 5.01 µM (active)
- Ki [25]: 3.16 µM (active)
- Ki [26]: 63.1 µM (active)
- Ki [27]: 7.94 µM (active)
- Ki [28]: 6.31 µM (active)
- Ki [29]: 10 µM (active)
- Ki [30]: 31.6 µM (active)
- Ki [31]: 50.1 µM (active)
- Ki [32]: 12.6 µM (active)
- Ki [33]: 2.51 µM (active)
- Ki [34]: 15.8 µM (active)
- Ki [35]: 50.1 µM (active)
- Ki [36]: 3.98 µM (active)
- Ki [37]: 20 µM (active)
- Ki [38]: 100 µM (active)
- Ki [39]: 31.6 µM (active)
- Ki [40]: 10 µM (active)
- Ki [41]: 15.8 µM (active)
- Ki [42]: 15.8 µM (active)
- Ki [43]: 3.98 µM (active)
- Ki [44]: 20 µM (active)
- Ki [45]: 6.31 µM (active)
- Ki [46]: 31.6 µM (active)
- Ki [47]: 15.8 µM (active)

SMILES: CN1CCN(c2ccc(C(=O)Nc3n[nH]c4ccc(Cc5cc(F)cc(F)c5)cc34)c(NC3CCOCC3)c2)CC1 [ENTRECTINIB]
- Ki [48]: > 6.31 µM (inactive)
- Ki [49]: 0.2 µM (active)
- Ki [4]: 0.794 µM (active)
- Ki [50]: 2.51 µM (active)
- Ki [51]: 0.02 µM (active)
- Ki [52]: 0.158 µM (active)
- Ki [53]: 1.58 µM (active)
- Ki [17]: > 2.51 µM (inactive)
- Ki [54]: > 7.94 µM (inactive)
- Ki [20]: 2.51 µM (active)
- Ki [55]: 0.158 µM (active)
- Ki [24]: > 3.98 µM (inactive)
- Ki [56]: 0.0398 µM (active)
- Ki [57]: 0.398 µM (active)
- Ki [27]: > 3.16 µM (inactive)
- Ki [28]: 2.51 µM (active)
- Ki [36]: > 2.51 µM (inactive)
- Ki [58]: > 3.16 µM (inactive)
- Ki [41]: > 3.98 µM (inactive)
- Ki [43]: 0.00158 µM (active)
- Ki [59]: 0.2 µM (active)
- Ki [60]: 0.631 µM (active)
- Ki [47]: 0.0398 µM (active)
- Ki [61]: 0.501 µM (active)
